Experiments:
Type in all cases: functional
[1] = Antioxidant activity assessed as nitric oxide radical scavenging activity
[2] = test system: Radical scavenging activity; assay: Antioxidant activity assessed as DPPH free radical scavenging activity
[3] = Antioxidant activity assessed as peroxy nitrite free radical scavenging activity
[4] = Antioxidant activity assessed as superoxide radical scavenging activity

| Structure (SMILES) | IC50 [1] [µM] | IC50 [2] [µM] | IC50 [3] [µM] | IC50 [4] [µM] |
| --- | --- | --- | --- | --- |
| CC1(C)N([O])C(c2ccc(C(=O)O)cc2)=[N+]([O-])C1(C)C | 138 | – | – | – |
| OCc1cc(O)c(O)c(Cl)c1 | 0.5 | 0.6 | 3.1 | 11 |
| OCc1cc(O)ccc1O [GENTISYL ALCOHOL] | 0.4 | 1.4 | 2.2 | > 50 |
| O=C1C=C(CO)[C@H](O)[C@@H]2O[C@H]12 [PARASITENONE] | – | 57 | 52.6 | – |

Reference: ChEMBL document CHEMBL1156408, “Parasitenone, a new epoxycyclohexenone related to gabosine from the marine-derived fungus Aspergillus parasiticus” (J Nat Prod, 2002)
